Measurements taken from ChEMBL document CHEMBL4715892, “Synthesis of novel quinoxaline-alkynyl derivatives and their anti-Mycobacterium tuberculosis activity” (Bioorg Med Chem Lett, 2021).

Columns and labels:
RAW264.7 = test: Cytotoxicity against mouse RAW264.7 cells assessed as reduction in cell viability up to 24 hrs by MTT assay; format: cell-based; conditions: RAW264.7, 24 h
[1] = Selectivity index ratio of IC50 for cytotoxicity against mouse RAW264.7 cells to MIC90 for antitubercular activity against Mycobacterium tuberculosis H37Rv; format: toxicity, cell-based; conditions: read-out: Selectivity Index
[2] = tested on: Mycobacterium tuberculosis; test: Antitubercular activity against Mycobacterium tuberculosis H37Rv assessed as reduction in microbial growth after 7 to 14 days by broth dilution method; format: functional; conditions: time 7-14 day

SMILES | IC50 (RAW264.7) | selectivity ratio [1] | MIC90 [2]
O=C(OCC#Cc1cnc2cc([N+](=O)[O-])ccc2n1)c1cccs1 | 19.9 µM | 7.24 | 2.74 µM
CC(=O)OCC#Cc1cnc2ccccc2n1 | 47.7 µM | 2.64 | 18.1 µM
O=CC#Cc1cnc2cc(Cl)ccc2n1 | 4.6 µM | 4.1 | 1.13 µM
OCC#Cc1cnc2cc(Cl)ccc2n1 | 35.3 µM | 2.22 | 15.9 µM
O=C(OCC#Cc1cnc2ccccc2n1)c1ccccc1 | 55.6 µM | 3.4 | 16.2 µM
CS(=O)(=O)OCC#Cc1cnc2cc([N+](=O)[O-])ccc2n1 | 13.5 µM | 8.5 | 1.59 µM
CC(=O)OCC#Cc1cnc2cc(Cl)ccc2n1 | 20.2 µM | 1.22 | 16.5 µM
CS(=O)(=O)OCC#Cc1cnc2cc(Cl)ccc2n1 | – | – | 54.5 µM
CS(=O)(=O)OCC#Cc1cnc2ccccc2n1 | 36.8 µM | 5.7 | 6.47 µM
O=C(OCC#Cc1cnc2ccccc2n1)c1cccs1 | 39 µM | 1.44 | 27 µM
OCC#Cc1cnc2ccccc2n1 | 43.7 µM | 0.83 | 52.7 µM
O=[N+]([O-])c1ccc2nc(C#CCO)cnc2c1 | 31.2 µM | 7.3 | 4.26 µM
O=C(OCC#Cc1cnc2cc(Cl)ccc2n1)c1cccs1 | 11.3 µM | 1 | 11.2 µM
CC(=O)OCC#Cc1cnc2cc([N+](=O)[O-])ccc2n1 | 13.2 µM | 7.3 | 1.8 µM
O=C(OCC#Cc1cnc2cc(Cl)ccc2n1)c1ccccc1 | 82.3 µM | 1.43 | 57.6 µM
O=CC#Cc1cnc2ccccc2n1 | 316 µM | 69.5 | 4.55 µM
O=C(OCC#Cc1cnc2cc([N+](=O)[O-])ccc2n1)c1ccccc1 | 248 µM | 2.6 | 93.8 µM
CO[C@H]1/C=C/O[C@@]2(C)Oc3c(C)c(O)c4c(O)c(c(/C=N/N5CCN(C)CC5)c(O)c4c3C2=O)NC(=O)/C(C)=C\C=C\[C@H](C)[C@H](O)[C@@H](C)[C@@H](O)[C@@H](C)[C@H](OC(C)=O)[C@@H]1C [RIFAMPIN] | – | – | 0.01 µM
